Test results as given in patent US8809538B2, “Piperidine-containing compounds and use thereof” (Array BioPharma Inc., priority 2009, dated 2014).

How the values were obtained:
[1] = tested on: high fat-fed obese mice (C57BL/6-DIO); experiment: Assay of an anti-diabetic effect in DIO (diet-induced obese) mice; type: in vivo; conditions: oral, 30 or 100 mg/kg b.i.d. for 15 days, overnight fasting state, dose-dependently
Description: (1) Assay of an Anti-Diabetic Effect of the Compounds in DIO (Diet-Induced Obese) Mice
Male, 12-weeks old high fat-fed obese mice (C57BL/6-DIO, Charles River Japan) were orally administered with the compounds of the present invention twice a day for 15 days. During the experiment, mice were provided high fat pellet diet (D12492, Research Diets) and tap water from bottle of feed water ad libitum. On the first day of the experiment, blood samples were collected from tail vein using a microcapillary to measure plasma glucose concentration. Based on plasma glucose concentration, mice were divided into some groups (five mice per group) and started dosing. The dosing was carried out by oral gavage, after suspending the compounds of the present invention in the previously described vehicle. The control group received only the vehicle. After 15 days from starting the dosing, plasma samples were collected from tail vein at overnight fasting state. Plasma glucose and insulin levels were measured with commercial kits (glucose, Glucose CH-Test Wako®, Wako Pure Chemical Industries, Ltd.; insulin, Rat Insulin ELISA Kit, Morinaga Institute of Biological Science Inc.).

[2] = tested on: rat transient focal cerebral ischemia model; experiment: Assay of a neuroprotective effect in the rat transient focal cerebral ischemia model (MCA occlusion); type: in vivo, Sprague Dawley rats; conditions: 120 min MCA occlusion, 100 mg/kg orally 1 hour before and 12 hours after MCA occlusion, evaluated at 24 hours after MCA occlusion
Experimental: (2) Assay of a Neuroprotective Effect of the Compound in the Rat Transient Focal Cerebral Ischemia Model.
Transient focal cerebral ischemia (120 min) was induced by intraluminal middle cerebral artery (hereinafter abbreviated to MCA) occlusion using the method of Koizumi et al., (in Japanese Journal of Stroke 1986; 8:1-8). Male Sprague Dawley rats (7 weeks old; Charles River Japan) were used. Under conditions of 30% oxygen and 70% air, the animals inhaled 2.5% halothane (Takeda Chemical Industries, Ltd.) through a halothane vaporizer (Shinano Works). Under the anesthesia, the left common carotid artery (hereinafter abbreviated to CCA), the external carotid artery (hereinafter abbreviated to ECA) and the internal carotid artery (hereinafter abbreviated to ICA) were isolated from surrounding connective tissue, then the CCA and the ECA were ligated with surgical thread. […] Immediately before MCA reperfusion neurological score of animals were observed using the method of Yonemori et al., (in J Cereb Blood Flow Metab 1996; 16: 973-80.) and animals that scored less than 5 were excluded due to insufficient occlusion. […]
At 24 hours after MCA occlusion, neurological score were evaluated. […] The cerebral infarct area was identified in scanned images and measured using image analysis software (Photoshop 5.5/NIH image 1.63) to determine the infarct area per slice. […]

[3] = tested on: Crl: CD(SD) rats; experiment: Evaluation of hepatic damage by the compounds in rats; type: in vivo; conditions: 100 mg/kg orally once daily for 4 days, blood at the day after the final dosing
Experimental: (3) Evaluation of Hepatic Damage by the Compounds in Rats
The compounds of the present invention were administered orally to male Crl: CD(SD) rats with four animals per group once daily for 4 days at dose levels of 0 (control) and 100 mg/kg to investigate hepatotoxicity. The compounds of the present invention were dissolved in 70% Wellsolve (solubilizer, Celeste Corporation) containing 30% DMSO (dimethyl sulfoxide) and administered orally at a dose volume of 10 mL/kg. The control group was treated with the vehicle at the same dosing volume.
Blood was drawn from the abdominal vein of each animal at the day after the final dosing. The plasma was separated by centrifugation at 13,684×g for 5 min at 4° C. The plasma concentration of aspartate aminotransferase (AST) and alanine aminotransferase (ALT), biochemical markers of hepatic damage, were measured.

Structure (SMILES) | fasted plasma glucose level [1] | fasted plasma insulin level [1] | cerebral infarct volume [2] | neurological score [2] | plasma alanine aminotransferase (ALT) level [3] | plasma aspartate aminotransferase (AST) level [3]
CCOc1nc(C(=O)NCC2CCN(Cc3cnc(-c4ccccn4)s3)CC2)cc(N)c1C#N [Example 115, 4-amino-5-cyano-6-ethoxy-N-((1-((2-(pyridin-2-yl)thiazol-5-yl)methyl)piperidin-4-yl)methyl)picolinamide] | significantly decreased | significantly decreased | significant preventive effect | significant preventive effect | not increased | not increased
CCOc1nc(C(=O)NCC2CCN(Cc3sc(-c4ccccn4)nc3CN(C)C)CC2)cc(N)c1C#N [Example 118, 4-amino-5-cyano-N-((1-((4-((dimethylamino)methyl)-2-(pyridin-2-yl)thiazol-5-yl)methyl)piperidin-4-yl)methyl)-6-ethoxypicolinamide] | – | – | – | – | not increased | not increased
